# From patent US20260048036A1, “CRYSTALLINE FORMS OF A GLUCOSYLCERAMIDE SYNTHASE INHIBITOR AND USES THEREOF” (ACELINK THERAPEUTICS, INC., priority 2022, published 2026)
# Several values for one entry are separate records, joined by “and”; a condition that tells them apart may be missing. Identical values can stand only once.
# Columns and labels:
# [1] = Water activity study (Form A + Form C slurry); format: physicochemical; conditions: ethanol/water mixtures, a.w. 0.2-1.0, 25° C. or 50° C., XRPD of wet cake
# Experimental: Water activity experiments were conducted at 25° C. or 50° C. to determine critical water activity between anhydrate and hydrate. […] The mixtures were stirred at 25° C. or 50° C. for at least 2 days. The obtained solid part (wet cake) was investigated by XRPD.
# The results of water activity study in different solvents at 25° C. and 50° C. are shown in Table 10 and Table 11, respectively. The water activity of a binary solvent system was calculated based on UNIFAC method (UNIQUAC Functional-group Activity Coefficients).
# [2] = Solid state stability, 1 week (HPLC purity, color, XRPD); conditions: for Bulk (XRPD) / Purity, Bulk (HPLC): Solid state, 1 week; for Purity, Bulk (HPLC): initial purity 99.8%
# [3] = Approximate solubility at 25° C. by visual observation; format: physicochemical; conditions: thermodynamic from solid
# Experimental: Free form Crystalline Form A of Compound 1 was used as the starting material for salt screening and selection study. […] Max. volume of each solvent added was 1 mL.
# [4] = target: T1, Glucosylceramide synthase (GCS) (Rattus norvegicus, UniProt Q9R0E0); test: GCS enzymatic assay with L6 cell lysate; format: biochemical; conditions: 0.1 μM, N = 1, N = 2
# T1 construct: The MDCK, K-562, and L6 cell lines all endogenously express GCS enzyme; host or cells: L6 rat skeletal muscle cell lysate
# T1 sequence (Q9R0E0 1-394): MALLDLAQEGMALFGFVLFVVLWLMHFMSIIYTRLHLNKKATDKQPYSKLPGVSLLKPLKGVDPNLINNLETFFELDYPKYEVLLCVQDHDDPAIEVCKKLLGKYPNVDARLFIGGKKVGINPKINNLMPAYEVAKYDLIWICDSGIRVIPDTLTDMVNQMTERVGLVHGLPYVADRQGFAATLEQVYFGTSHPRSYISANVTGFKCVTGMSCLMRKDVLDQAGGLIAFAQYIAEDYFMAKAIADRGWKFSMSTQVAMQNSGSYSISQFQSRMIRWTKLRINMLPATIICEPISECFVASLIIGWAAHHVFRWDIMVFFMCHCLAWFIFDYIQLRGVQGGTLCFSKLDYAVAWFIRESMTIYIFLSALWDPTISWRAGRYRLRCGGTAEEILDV
# Excerpt: In this study, the inventors developed a reliable method to monitor GCS catalytic activity using the fluorescent substrate, C6-NBD-ceramide. The reaction product, C6-NBD-glucosylceramide, could then be detected and quantified by LC-MS/MS. The inventors used this method to test and validate the effect of various GCS inhibitors on GCS enzyme activity from different species.
# The MDCK, K-562, and L6 cell lines all endogenously express GCS enzyme and were used to test the effect of various GCS inhibitors on enzyme originating from different species. The GCS enzyme activity was detected by using the fluorescent substrate, C6-NBD-ceramide, and monitoring the formation of the fluorescent reaction product, C6-NBD-glucosylceramide. First, the inventors used cell lysate derived from a canine kidney cell line (MDCK, ATCC Cat #CCL-34™) as the source of GCS and tested the inhibitory activity of several control and test compounds. The inventors then used the human leukemia K-562 cell line (ATCC Cat #[…]) to test the effect of these GCS inhibitors on intact living cells. Finally, a cell lysate derived from a rat skeletal muscle cell line, L6 (ATCC Cat #[…]), was used to test the effect of these GCS inhibitors on rodent GCS enzyme.
# GCS activity was evaluated using a GCS enzyme assay derived from MDCK or L6 cell lysates.
# MDCK or L6 cell lysates were prepared using M-PER in the presence of a protease inhibitor cocktail. Each 100 mm dish (100% confluent) was lysed with 250 μl of M-PER containing protease inhibitors. Protein concentration was determined using Pierce BCA protein assay kit.
# Sixty micrograms of MDCK lysate was incubated with various concentrations of compounds (0.00001 μM-1 μM) in 100 mM Tris buffer (pH 7.5) containing 10 mM MgCl2, 1 mM dithiothreitol, 1 mM EGTA, 2 mM NAD, 100 μM UDP-glucose, 10 μM C6-NBD-ceramide with 35 μM dioleoylphosphatidylcholine/5 μM sulfatide in a final reaction volume of 100 μl at 37° C. for 1 hour. The final concentration of DMSO was 0.1% in both compound treated and DMSO only treated samples. Each individual reaction was terminated with 11 volumes of methanol:acetonitrile (6:5; containing 200 ng/ml Tolbutamide as internal control). After sufficient mixing, reactions were centrifuged at 2000 rpm for 10 mins, supernatant was injected into the LC-MS/MS for analysis.
# For the assay with L6 cell lysate, different amounts of L6 cell lysate were used.
# The quantitative analysis of C6-NBD-glucosylceramide was performed on a Shimadzu ultra-fast liquid chromatography coupled with API 4000 mass spectrometer. Analyst 1.5 software packages were used to control the LC-MS/MS system, as well as for data acquisition and processing.
# The C6-NBD-glucosylceramide reading was normalized first by dividing the peak area of C6-NBD-glucosylceramide with the peak area of the internal standard, and then the amount was calculated according to the standard curve generated in the same assay run. For the cell based assay results, the amount of C6-NBD-glucosylceramide was also normalized by the protein concentration of the cell samples.
# To confirm the inhibitory activity of test compounds on GCS from different species, cells from rat were used. First, the presence of GCS activity was verified using various amounts of L6 cell lysate (FIG. 34, Table 26).
# [5] = Competitive equilibration experiment (Form A + D + E slurry); format: physicochemical; conditions: ethanol, acetone, acetonitrile at 5° C., 25° C. and 50° C., 3 days, XRPD
# Experimental: Competitive slurry was conducted to determine thermodynamic relationships of Crystalline Form A, Crystalline Form D and Crystalline Form E of Compound 1. […] The mixtures were stirred at 5° C., 25° C. or 50° C. for 3 days. Obtained solid part (wet cake) was investigated by XRPD.
compound,measurement,setting,value
O=C(N[C@H](CN1CCCC1)[C@H](O)c1ccc(OC2CC2)c(Cl)c1)/C(=N/O)c1ccc2cc(Cl)ccc2c1 [Crystalline Form A of Compound 1],form stability in water activity study,[1],stable in a wide range of water activity
same,chemical and physical stability,"[2]; 25° C./92% RH open container, 40° C./75% RH open container, 60° C. tight container, one week",chemically and physically stable
same,Bulk (XRPD),"[2]; 25° C./92% RH, open container",No form change
same,"Purity, Bulk (HPLC)","[2]; 25° C./92% RH, open container",99.8%
same,Bulk (XRPD),"[2]; 40° C./75% RH, open container",No form change
same,"Purity, Bulk (HPLC)","[2]; 40° C./75% RH, open container",99.8%
same,Bulk (XRPD),"[2]; 60° C., tight container",No form change
same,"Purity, Bulk (HPLC)","[2]; 60° C., tight container",99.8%
same,solubility,"[3]; organic solvent or mixture, Acetone",16700 to 25000 µg/mL
same,solubility,"[3]; organic solvent or mixture, Acetonitrile",< 5000 µg/mL
same,solubility,"[3]; organic solvent or mixture, Ethanol",5000 to 5500 µg/mL
same,solubility,"[3]; organic solvent or mixture, Ethyl acetate",< 5000 µg/mL
same,solubility,[3]; Water,< 5000 µg/mL
same,C6-NBD-Ceramide (Normalized to internal control),[4]; 30 μg L6 lysate/reaction,6.69 and 6.31
same,C6-NBD-Glucosylceramide Concentration,[4]; 30 μg L6 lysate/reaction,9.73 nM and 10.5 nM
same,Inhibition,[4]; 30 μg L6 lysate/reaction,98.57% and 98.45%
same,inhibition at 0.1 µM,[4]; 30 μg L6 lysate/reaction,> 98%
same,C6-NBD-Ceramide (Normalized to internal control),[4]; 60 μg L6 lysate/reaction,5.87 and 6.17
same,C6-NBD-Glucosylceramide Concentration,[4]; 60 μg L6 lysate/reaction,22.5 nM and 26.3 nM
same,Inhibition,[4]; 60 μg L6 lysate/reaction,97.64%
same,inhibition at 0.1 µM,[4]; 60 μg L6 lysate/reaction,98%
same,C6-NBD-Ceramide (Normalized to internal control),[4]; 120 μg L6 lysate/reaction,6.09 and 6.11
same,C6-NBD-Glucosylceramide Concentration,[4]; 120 μg L6 lysate/reaction,45.8 nM and 44.7 nM
same,Inhibition,[4]; 120 μg L6 lysate/reaction,96.74%
same,inhibition at 0.1 µM,[4]; 120 μg L6 lysate/reaction,96.7%
same,C6-NBD-Ceramide (Normalized to internal control),[4]; 180 μg L6 lysate/reaction,5.15 and 5.12
same,C6-NBD-Glucosylceramide Concentration,[4]; 180 μg L6 lysate/reaction,54.7 nM and 59.0 nM
same,Inhibition,[4]; 180 μg L6 lysate/reaction,95.55%
same,inhibition at 0.1 µM,[4]; 180 μg L6 lysate/reaction,95.9%
same,C6-NBD-Ceramide (Normalized to internal control),[4]; 240 μg L6 lysate/reaction,5.72 and 5.61
same,C6-NBD-Glucosylceramide Concentration,[4]; 240 μg L6 lysate/reaction,76.9 nM and 78.2 nM
same,Inhibition,[4]; 240 μg L6 lysate/reaction,93.51%
same,inhibition at 0.1 µM,[4]; 240 μg L6 lysate/reaction,93.6%
same,thermodynamic stability in competitive slurry,[5],the most stable form
